These results are taken from patent publication US20260070945A1, “MACROCYCLIC IMMUNOMODULATORS” (Bristol-Myers Squibb Company, priority 2022, published 2026).

Where a SMILES comes first, the peptide text is derived from it. Bridges are numbered along the chain shown (N, C = ends). [ ]: non-standard residue; d: D form. The star is where a group is joined. ξ: configuration not given here. Phe(4-COOH) = N[C@@H](Cc1ccc(C(=O)O)cc1)C(=O)O; Bip = N[C@@H](Cc1ccc(-c2ccccc2)cc1)C(=O)O; Phe(3-F) = N[C@@H](Cc1cccc(F)c1)C(=O)O; Phe(3-Me) = Cc1cccc(C[C@H](N)C(=O)O)c1; Val(3-OH) = CC(C)(O)[C@H](N)C(=O)O; Cha = N[C@@H](CC1CCCCC1)C(=O)O; Ile(3ξ) = CCC(C)[C@H](N)C(=O)O; Carboxymethyl = O=C(O)C*; NMeA = CN[C@@H](C)C(=O)O; Aun = NCCCCCCCCCCC(=O)O; Dab = NCC[C@H](N)C(=O)O; AEEA = NCCOCCOCC(=O)O; ξDab = NCCC(N)C(=O)O

T1 sequence (Q15116 25-288): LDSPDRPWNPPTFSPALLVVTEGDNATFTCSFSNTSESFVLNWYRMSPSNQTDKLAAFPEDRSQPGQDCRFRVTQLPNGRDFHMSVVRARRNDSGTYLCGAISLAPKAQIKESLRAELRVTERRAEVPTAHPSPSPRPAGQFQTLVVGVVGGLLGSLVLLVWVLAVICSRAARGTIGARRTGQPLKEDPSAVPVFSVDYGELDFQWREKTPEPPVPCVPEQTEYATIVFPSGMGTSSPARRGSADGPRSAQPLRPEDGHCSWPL

This test has as its target T1, PD-1/PD-L1 interaction (PE-labeled human PD-L1-Ig binding to Jurkat cell line over-expressing human PD-1) (Homo sapiens, UniProt Q15116).
T1 construct: expressed in transfected cells; host or cells: Jurkat
Nature of the test: Jurkat-PD-1 Cell Binding High-Content Screening Assay (CBA). As to conditions: Jurkat-hPD-1 cells, PE-labeled PD-L1-Ig 20 nM final; read-out: Jurkat HPD1 PDL1 IC50. In short, it runs like this: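 Read-out: high-content imaging of cell-bound PE fluorescence, with Hoechst 33342 nuclear counterstain after paraformaldehyde fixation. Before labeled ligand (20 nM final, 1 h) was added, compound sat on the cells for 2 h at 37 °C in DMEM/10% FCS.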
What is called IC50 is the concentration at which inhibition is half-maximal. Take `CC(C)C[C@@H]1NC(=O)[C@H](Cc2c[nH]c3ccccc23)NC(=O)[C@H](CC(=O)O)NC(=O)[C@H](Cc2ccc(C(=O)O)cc2)NC(=O)[C@H](Cc2ccc(OCC(=O)O)cc2)NC(=O)CSC[C@@H](C(=O)N[C@@H](CC(N)=O)C(=O)NCCOCCOCC(=O)NCCCCCCCCCCC(=O)O)NC(=O)[C@H](CO)NC(=O)[C@H](C(C)(C)O)NC(=O)[C@H](CC2CCCCC2)NC(=O)[C@H](CCN)NC(=O)[C@@H](CC(C)C)NC(=O)[C@H](C)N(C)C(=O)[C@H](C(C)C)NC(=O)[C@H](Cc2ccc(-c3ccccc3)cc2)NC1=O` [Example 1413] ({CH2CO}-Y(Carboxymethyl)[Phe(4-COOH)]DWL[Bip]V[NMeA][dL][Dab][Cha][Val(3-OH)]SCN[AEEA][Aun]-OH; thioether N-14): the IC50 turned out to be 18.1 nM.
The value for `CCC(C)[C@@H]1NC(=O)[C@H](Cc2ccc(-c3ccccc3)cc2)NC(=O)[C@H](CC(C)C)NC(=O)[C@H](Cc2c[nH]c3ccccc23)NC(=O)[C@H](CC(=O)O)NC(=O)[C@H](Cc2ccc(C(=O)O)cc2)NC(=O)[C@H](Cc2ccc(OCC(=O)O)cc2)NC(=O)CSC[C@@H](C(=O)N[C@@H](CCN)C(=O)NCCOCCOCC(=O)NCCCCCCCCCCC(=O)O)NC(=O)[C@H](CCC(=O)O)NC(=O)[C@H](C(C)(C)O)NC(=O)[C@H](CC2CCCCC2)NC(=O)[C@H](CCN)NC(=O)[C@@H](CC(C)C)NC(=O)[C@H](C)N(C)C1=O` (stereo partly drawn) [Example 1414] ({CH2CO}-Y(Carboxymethyl)[Phe(4-COOH)]DWL[Bip][Ile(3ξ)][NMeA][dL][Dab][Cha][Val(3-OH)]EC[Dab][AEEA][Aun]-OH; thioether N-14) was 3 nM; that for `Cc1cccc(C[C@@H]2NC(=O)[C@H](CC(=O)O)NC(=O)[C@H](Cc3ccc(OCC(=O)O)cc3)NC(=O)[C@H]([C@@H](C)O)NC(=O)CSC[C@@H](C(=O)N[C@@H](CC(N)=O)C(=O)NCCOCCOCC(=O)NCCCCCCCCCCC(=O)O)NC(=O)[C@H](CCC(=O)O)NC(=O)[C@H](C(C)(C)O)NC(=O)[C@H](CC3CCCCC3)NC(=O)[C@H](CCN)NC(=O)[C@@H](CC(C)C)NC(=O)[C@H](C)N(C)C(=O)[C@H](Cc3ccc(OCC(=O)O)cc3)NC(=O)[C@H](Cc3ccc(-c4ccccc4)cc3)NC(=O)[C@H](Cc3ccc(OCC(=O)O)cc3)NC2=O)c1` [Example 1415] ({CH2CO}-TY(Carboxymethyl)D[Phe(3-Me)]Y(Carboxymethyl)[Bip]Y(Carboxymethyl)[NMeA][dL][Dab][Cha][Val(3-OH)]ECN[AEEA][Aun]-OH; thioether N-14) was 172 nM.
For `Cc1cccc(C[C@@H]2NC(=O)[C@H](CC(=O)O)NC(=O)[C@H](Cc3ccc(OCC(=O)O)cc3)NC(=O)[C@H]([C@@H](C)O)NC(=O)CSC[C@@H](C(=O)N[C@H](CC(N)=O)C(=O)NCCOCCOCC(=O)NCCCCCCCCCCC(=O)O)NC(=O)[C@H](CCC(=O)O)NC(=O)[C@H](C(C)(C)O)NC(=O)[C@H](CC3CCCCC3)NC(=O)[C@H](CCN)NC(=O)[C@@H](CC(C)C)NC(=O)[C@H](C)N(C)C(=O)[C@H](Cc3ccc(OCC(=O)O)cc3)NC(=O)[C@H](Cc3ccc(-c4ccccc4)cc3)NC(=O)[C@H](Cc3ccc(OCC(=O)O)cc3)NC2=O)c1` [Example 1416] ({CH2CO}-TY(Carboxymethyl)D[Phe(3-Me)]Y(Carboxymethyl)[Bip]Y(Carboxymethyl)[NMeA][dL][Dab][Cha][Val(3-OH)]EC[dN][AEEA][Aun]-OH; thioether N-14), the IC50 came to 311 nM.
In the case of `Cc1cccc(C[C@@H]2NC(=O)[C@H](CC(=O)O)NC(=O)[C@H](Cc3ccc(OCC(=O)O)cc3)NC(=O)[C@H]([C@@H](C)O)NC(=O)CSC[C@@H](C(=O)N[C@H](C)C(=O)NCCOCCOCC(=O)NCCCCCCCCCCC(=O)O)NC(=O)[C@H](CCC(=O)O)NC(=O)[C@H](C(C)(C)O)NC(=O)[C@H](CC3CCCCC3)NC(=O)[C@H](CCN)NC(=O)[C@@H](CC(C)C)NC(=O)[C@H](C)N(C)C(=O)[C@H](Cc3ccc(OCC(=O)O)cc3)NC(=O)[C@H](Cc3ccc(-c4ccccc4)cc3)NC(=O)[C@H](Cc3ccc(OCC(=O)O)cc3)NC2=O)c1` [Example 1417] ({CH2CO}-TY(Carboxymethyl)D[Phe(3-Me)]Y(Carboxymethyl)[Bip]Y(Carboxymethyl)[NMeA][dL][Dab][Cha][Val(3-OH)]EC[dA][AEEA][Aun]-OH; thioether N-14), the IC50 is 379 nM.
Under `Cc1cccc(C[C@@H]2NC(=O)[C@H](CC(=O)O)NC(=O)[C@H](Cc3ccc(OCC(=O)O)cc3)NC(=O)[C@H]([C@@H](C)O)NC(=O)CSC[C@@H](C(=O)N[C@@H](CCN)C(=O)NCCCCCCCCCCC(=O)O)NC(=O)[C@H](CCC(=O)O)NC(=O)[C@H](C(C)(C)O)NC(=O)[C@H](CC3CCCCC3)NC(=O)[C@H](CCN)NC(=O)[C@@H](CC(C)C)NC(=O)[C@H](C)N(C)C(=O)[C@H](Cc3ccc(OCC(=O)O)cc3)NC(=O)[C@H](Cc3ccc(-c4ccccc4)cc3)NC(=O)[C@H](Cc3ccc(OCC(=O)O)cc3)NC2=O)c1` [Example 1418] ({CH2CO}-TY(Carboxymethyl)D[Phe(3-Me)]Y(Carboxymethyl)[Bip]Y(Carboxymethyl)[NMeA][dL][Dab][Cha][Val(3-OH)]EC[Dab][Aun]-OH; thioether N-14) stands 37.1 nM.
Under `Cc1cccc(C[C@@H]2NC(=O)[C@H](CC(=O)O)NC(=O)[C@H](Cc3ccc(OCC(=O)O)cc3)NC(=O)[C@H]([C@@H](C)O)NC(=O)CSC[C@@H](C(=O)N[C@@H](CC(N)=O)C(=O)NCCCCCCCCCCC(=O)O)NC(=O)[C@H](CCC(=O)O)NC(=O)[C@H](C(C)(C)O)NC(=O)[C@H](CC3CCCCC3)NC(=O)[C@H](CCN)NC(=O)[C@@H](CC(C)C)NC(=O)[C@H](C)N(C)C(=O)[C@H](Cc3ccc(OCC(=O)O)cc3)NC(=O)[C@H](Cc3ccc(-c4ccccc4)cc3)NC(=O)[C@H](Cc3ccc(OCC(=O)O)cc3)NC2=O)c1` [Example 1419] ({CH2CO}-TY(Carboxymethyl)D[Phe(3-Me)]Y(Carboxymethyl)[Bip]Y(Carboxymethyl)[NMeA][dL][Dab][Cha][Val(3-OH)]ECN[Aun]-OH; thioether N-14) stands 186 nM; under `Cc1cccc(C[C@@H]2NC(=O)[C@H](CC(=O)O)NC(=O)[C@H](Cc3ccc(OCC(=O)O)cc3)NC(=O)[C@H]([C@@H](C)O)NC(=O)CSC[C@@H](C(=O)N[C@H](CC(N)=O)C(=O)NCCCCCCCCCCC(=O)O)NC(=O)[C@H](CCC(=O)O)NC(=O)[C@H](C(C)(C)O)NC(=O)[C@H](CC3CCCCC3)NC(=O)[C@H](CCN)NC(=O)[C@@H](CC(C)C)NC(=O)[C@H](C)N(C)C(=O)[C@H](Cc3ccc(OCC(=O)O)cc3)NC(=O)[C@H](Cc3ccc(-c4ccccc4)cc3)NC(=O)[C@H](Cc3ccc(OCC(=O)O)cc3)NC2=O)c1` [Example 1420] ({CH2CO}-TY(Carboxymethyl)D[Phe(3-Me)]Y(Carboxymethyl)[Bip]Y(Carboxymethyl)[NMeA][dL][Dab][Cha][Val(3-OH)]EC[dN][Aun]-OH; thioether N-14), 116 nM.
Under `Cc1cccc(C[C@@H]2NC(=O)[C@H](CC(=O)O)NC(=O)[C@H](Cc3ccc(OCC(=O)O)cc3)NC(=O)[C@H]([C@@H](C)O)NC(=O)CSC[C@@H](C(=O)N[C@H](C)C(=O)NCCCCCCCCCCC(=O)O)NC(=O)[C@H](CCC(=O)O)NC(=O)[C@H](C(C)(C)O)NC(=O)[C@H](CC3CCCCC3)NC(=O)[C@H](CCN)NC(=O)[C@@H](CC(C)C)NC(=O)[C@H](C)N(C)C(=O)[C@H](Cc3ccc(OCC(=O)O)cc3)NC(=O)[C@H](Cc3ccc(-c4ccccc4)cc3)NC(=O)[C@H](Cc3ccc(OCC(=O)O)cc3)NC2=O)c1` [Example 1421] ({CH2CO}-TY(Carboxymethyl)D[Phe(3-Me)]Y(Carboxymethyl)[Bip]Y(Carboxymethyl)[NMeA][dL][Dab][Cha][Val(3-OH)]EC[dA][Aun]-OH; thioether N-14) stands 240 nM; under `Cc1cccc(C[C@@H]2NC(=O)[C@H](CC(=O)O)NC(=O)[C@H](Cc3ccc(OCC(=O)O)cc3)NC(=O)[C@H]([C@@H](C)O)NC(=O)CSC[C@@H](C(=O)N[C@@H](CCN)C(=O)NCCCCCCCCCCC(=O)O)NC(=O)[C@H](CCC(=O)O)NC(=O)[C@H](C(C)C)NC(=O)[C@H](CC3CCCCC3)NC(=O)[C@H](CCN)NC(=O)[C@@H](CC(C)C)NC(=O)[C@H](C)N(C)C(=O)[C@H](Cc3ccc(OCC(=O)O)cc3)NC(=O)[C@H](Cc3ccc(-c4ccccc4)cc3)NC(=O)[C@H](Cc3ccc(OCC(=O)O)cc3)NC2=O)c1` [Example 1422] ({CH2CO}-TY(Carboxymethyl)D[Phe(3-Me)]Y(Carboxymethyl)[Bip]Y(Carboxymethyl)[NMeA][dL][Dab][Cha]VEC[Dab][Aun]-OH; thioether N-14), 20.2 nM; under `Cc1cccc(C[C@@H]2NC(=O)[C@H](CC(=O)O)NC(=O)[C@H](Cc3ccc(OCC(=O)O)cc3)NC(=O)[C@H]([C@@H](C)O)NC(=O)CSC[C@@H](C(=O)NC(CCN)C(=O)NCCOCCOCC(=O)NCCCCCCCCCCC(=O)O)NC(=O)[C@H](CCC(=O)O)NC(=O)[C@H](C(C)(C)O)NC(=O)[C@H](CC3CCCCC3)NC(=O)[C@H](CCN)NC(=O)[C@@H](CC(C)C)NC(=O)[C@H](C)N(C)C(=O)[C@H](Cc3ccc(OCC(=O)O)cc3)NC(=O)[C@H](Cc3ccc(-c4ccccc4)cc3)NC(=O)[C@H](Cc3ccc(C(=O)O)cc3)NC2=O)c1` (stereo partly drawn) [Example 1423] ({CH2CO}-TY(Carboxymethyl)D[Phe(3-Me)][Phe(4-COOH)][Bip]Y(Carboxymethyl)[NMeA][dL][Dab][Cha][Val(3-OH)]EC[ξDab][AEEA][Aun]-OH; thioether N-14), 28.1 nM.
For `Cc1cccc(C[C@@H]2NC(=O)[C@H](CC(=O)O)NC(=O)[C@H](Cc3ccc(OCC(=O)O)cc3)NC(=O)[C@H]([C@@H](C)O)NC(=O)CSC[C@@H](C(=O)N[C@@H](CCN)C(=O)NCCOCCOCC(=O)NCCCCCCCCCCC(=O)O)NC(=O)[C@H](CCC(=O)O)NC(=O)[C@H](C(C)(C)O)NC(=O)[C@H](CC3CCCCC3)NC(=O)[C@H](CCN)NC(=O)[C@@H](CC(C)C)NC(=O)[C@H](C)N(C)C(=O)[C@H](Cc3ccc(OCC(=O)O)cc3)NC(=O)[C@H](Cc3ccc(-c4ccccc4)cc3)NC(=O)[C@H](Cc3cccc(F)c3)NC2=O)c1` [Example 1424] ({CH2CO}-TY(Carboxymethyl)D[Phe(3-Me)][Phe(3-F)][Bip]Y(Carboxymethyl)[NMeA][dL][Dab][Cha][Val(3-OH)]EC[Dab][AEEA][Aun]-OH; thioether N-14), the IC50 is 27.7 nM.
